Data taken from US12252524B2, “GIP/GLP1 co-agonist compounds” (Eli Lilly and Company, priority 2018, dated 2025).
Numbered stars: 1 amine (or outer) side, 2 acyl side, 3 side chain; on linkers, the order of the positions; unused ones are H or OH. Square brackets hold non-standard residues; d marks the D form. Side chains are listed from the residue outwards. Peptide text beside a SMILES is read from it. * marks the point of attachment. C20 diacid = O=C(O)CCCCCCCCCCCCCCCCCCC(=O)*; γGlu = O=C(O)[C@H](CCC(=O)[*:2])N[*:1]; αMeF = C[C@](N)(Cc1ccccc1)C(=O)O; 3Pal = N[C@@H](Cc1cccnc1)C(=O)O; AEEA = NCCOCCOCC(=O)O; Aib = CC(C)(N)C(=O)O

What was measured:
[1] = target: T1, gastric inhibitory peptide receptor (GIPR) (Homo sapiens, UniProt P48546); assay: cAMP pharmacological functional assay in presence of casein, hGIPR; type: cell-based; settings: HEK293 cells expressing hGIPR, 0.1% Casein, geometric mean; read-out: hGIPR cAMP Rel EC50 nM (SEM, n)
T1 sequence (P48546 22-466): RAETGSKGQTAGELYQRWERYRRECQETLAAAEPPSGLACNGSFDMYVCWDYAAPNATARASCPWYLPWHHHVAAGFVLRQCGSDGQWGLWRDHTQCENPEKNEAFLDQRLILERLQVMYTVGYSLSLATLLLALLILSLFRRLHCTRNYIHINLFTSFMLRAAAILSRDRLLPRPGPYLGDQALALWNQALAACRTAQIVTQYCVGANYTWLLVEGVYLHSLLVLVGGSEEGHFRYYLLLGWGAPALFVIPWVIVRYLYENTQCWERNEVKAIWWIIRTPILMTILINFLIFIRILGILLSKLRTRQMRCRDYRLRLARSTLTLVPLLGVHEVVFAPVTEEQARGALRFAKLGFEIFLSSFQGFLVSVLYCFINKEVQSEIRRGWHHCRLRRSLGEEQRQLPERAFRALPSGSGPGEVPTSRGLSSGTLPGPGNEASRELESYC

[2] = target: human GLP-1 receptor (GLP-1R) (Homo sapiens, UniProt P43220); assay: cAMP pharmacological functional assay in presence of casein, hGLP-1R; type: cell-based; settings: HEK293 cells expressing hGLP-1R, 0.1% Casein, geometric mean; read-out: hGLP1R cAMP Rel EC50 nM (SEM, n)
Chain of human GLP-1 receptor (GLP-1R) (P43220 24-463): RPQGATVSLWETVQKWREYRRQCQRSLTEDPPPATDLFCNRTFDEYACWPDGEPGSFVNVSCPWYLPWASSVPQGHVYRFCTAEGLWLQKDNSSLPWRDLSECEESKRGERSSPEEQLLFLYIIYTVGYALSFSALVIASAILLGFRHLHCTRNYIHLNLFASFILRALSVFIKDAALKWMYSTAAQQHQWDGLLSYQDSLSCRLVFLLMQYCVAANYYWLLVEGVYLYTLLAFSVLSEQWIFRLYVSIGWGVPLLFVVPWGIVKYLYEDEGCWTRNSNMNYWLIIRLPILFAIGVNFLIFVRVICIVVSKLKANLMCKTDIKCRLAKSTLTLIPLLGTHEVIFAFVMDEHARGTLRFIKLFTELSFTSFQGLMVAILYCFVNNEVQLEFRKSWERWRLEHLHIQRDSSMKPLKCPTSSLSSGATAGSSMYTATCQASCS

CC[C@H](C)[C@H](NC(=O)[C@H](CC(C)C)NC(=O)[C@H](Cc1ccc(O)cc1)NC(=O)[C@H](CCC(=O)O)NC(=O)[C@@H](NC(=O)[C@H](Cc1ccccc1)NC(=O)[C@H](C)NC(=O)C(C)(C)NC(=O)[C@H](CCC(N)=O)NC(=O)[C@H](C)NC(=O)[C@H](CCCCNC(=O)COCCOCCNC(=O)COCCOCCNC(=O)CC[C@H](NC(=O)CCCCCCCCCCCCCCCCCCC(=O)O)C(=O)O)NC(=O)[C@H](CCC(=O)O)NC(=O)[C@H](CC(=O)O)NC(=O)[C@H](CC(C)C)NC(=O)C(C)(C)NC(=O)[C@@H](NC(=O)[C@H](CO)NC(=O)[C@H](Cc1ccc(O)cc1)NC(=O)[C@H](CC(=O)O)NC(=O)[C@H](CO)NC(=O)[C@@H](NC(=O)[C@](C)(Cc1ccccc1)NC(=O)[C@@H](NC(=O)CNC(=O)[C@H](CCC(=O)O)NC(=O)C(C)(C)NC(=O)[C@@H](N)Cc1ccc(O)cc1)[C@@H](C)O)[C@@H](C)O)[C@@H](C)CC)[C@@H](C)CC)C(=O)N[C@@H](CCC(=O)O)C(=O)NCC(=O)NCC(N)=O [Example 102] (H-Y[Aib]EGT[αMeF]TSDYSI[Aib]LDEK([AEEA-AEEA-γGlu-C20 diacid])AQ[Aib]AFIEYLIEGG-NH2)
EC50 [1]: 0.178 nM
EC50 [2]: 0.0628 nM

CC[C@H](C)[C@H](NC(=O)[C@H](CC(C)C)NC(=O)[C@H](Cc1ccc(O)cc1)NC(=O)[C@H](CCC(=O)O)NC(=O)[C@@H](NC(=O)[C@H](Cc1ccccc1)NC(=O)[C@H](C)NC(=O)C(C)(C)NC(=O)[C@H](CCC(N)=O)NC(=O)[C@H](C)NC(=O)[C@H](CCCCNC(=O)COCCOCCNC(=O)[C@H]1CC[C@H](CNC(=O)CC[C@H](NC(=O)CCCCCCCCCCCCCCCCCCC(=O)O)C(=O)O)CC1)NC(=O)[C@H](CCCCN)NC(=O)[C@H](CC(=O)O)NC(=O)[C@H](CC(C)C)NC(=O)[C@H](CC(C)C)NC(=O)[C@@H](NC(=O)[C@H](CO)NC(=O)[C@H](Cc1ccc(O)cc1)NC(=O)[C@H](CC(=O)O)NC(=O)[C@H](CO)NC(=O)[C@@H](NC(=O)[C@H](Cc1ccccc1)NC(=O)[C@@H](NC(=O)CNC(=O)[C@H](CCC(=O)O)NC(=O)C(C)(C)NC(=O)[C@@H](N)Cc1ccc(O)cc1)[C@@H](C)O)[C@@H](C)O)[C@@H](C)CC)[C@@H](C)CC)C(=O)N[C@@H](CCC(=O)O)C(=O)NCC(=O)NCC(=O)N1CCC[C@H]1C(=O)N[C@@H](CO)C(=O)N[C@@H](CO)C(=O)NCC(=O)N[C@@H](C)C(=O)N1CCC[C@H]1C(=O)N1CCC[C@H]1C(=O)N1CCC[C@H]1C(=O)N[C@@H](CO)C(N)=O [Example 111]
EC50 [1]: 0.141 nM
EC50 [2]: 0.308 nM

CC[C@H](C)[C@H](NC(=O)[C@H](CC(C)C)NC(=O)[C@H](Cc1ccc(O)cc1)NC(=O)[C@H](CCC(=O)O)NC(=O)[C@@H](NC(=O)[C@H](Cc1ccccc1)NC(=O)[C@H](C)NC(=O)C(C)(C)NC(=O)[C@H](CCC(N)=O)NC(=O)[C@H](C)NC(=O)[C@H](CCCCNC(=O)COCCOCCNC(=O)COCCOCCNC(=O)[C@@H](N)CCCCNC(=O)CCCCCCCCCCCCCCCCCCC(=O)O)NC(=O)[C@H](CCCCN)NC(=O)[C@H](CC(=O)O)NC(=O)[C@H](CC(C)C)NC(=O)[C@H](CC(C)C)NC(=O)[C@@H](NC(=O)[C@H](CO)NC(=O)[C@H](Cc1ccc(O)cc1)NC(=O)[C@H](CC(=O)O)NC(=O)[C@H](CO)NC(=O)[C@@H](NC(=O)[C@H](Cc1ccccc1)NC(=O)[C@@H](NC(=O)CNC(=O)[C@H](CCC(=O)O)NC(=O)C(C)(C)NC(=O)[C@@H](N)Cc1ccc(O)cc1)[C@@H](C)O)[C@@H](C)O)[C@@H](C)CC)[C@@H](C)CC)C(=O)N[C@@H](CCC(=O)O)C(=O)NCC(=O)NCC(=O)N1CCC[C@H]1C(=O)N[C@@H](CO)C(=O)N[C@@H](CO)C(=O)NCC(=O)N[C@@H](C)C(=O)N1CCC[C@H]1C(=O)N1CCC[C@H]1C(=O)N1CCC[C@H]1C(=O)N[C@@H](CO)C(N)=O [Example 113]
EC50 [1]: 0.166 nM
EC50 [2]: 0.233 nM

CC[C@H](C)[C@H](NC(=O)[C@H](CC(C)C)NC(=O)[C@H](Cc1ccc(O)cc1)NC(=O)[C@H](CCC(=O)O)NC(=O)[C@@H](NC(=O)[C@H](Cc1ccccc1)NC(=O)[C@H](C)NC(=O)C(C)(C)NC(=O)[C@H](CCC(N)=O)NC(=O)[C@H](C)NC(=O)[C@H](CCCCNC(=O)COCCOCCNC(=O)[C@@H](N)CCCCNC(=O)[C@@H](N)CCCCNC(=O)CCCCCCCCCCCCCCCCCCC(=O)O)NC(=O)[C@H](CCCCN)NC(=O)[C@H](CC(=O)O)NC(=O)[C@H](CC(C)C)NC(=O)[C@H](CC(C)C)NC(=O)[C@@H](NC(=O)[C@H](CO)NC(=O)[C@H](Cc1ccc(O)cc1)NC(=O)[C@H](CC(=O)O)NC(=O)[C@H](CO)NC(=O)[C@@H](NC(=O)[C@H](Cc1ccccc1)NC(=O)[C@@H](NC(=O)CNC(=O)[C@H](CCC(=O)O)NC(=O)C(C)(C)NC(=O)[C@@H](N)Cc1ccc(O)cc1)[C@@H](C)O)[C@@H](C)O)[C@@H](C)CC)[C@@H](C)CC)C(=O)N[C@@H](CCC(=O)O)C(=O)NCC(=O)NCC(=O)N1CCC[C@H]1C(=O)N[C@@H](CO)C(=O)N[C@@H](CO)C(=O)NCC(=O)N[C@@H](C)C(=O)N1CCC[C@H]1C(=O)N1CCC[C@H]1C(=O)N1CCC[C@H]1C(=O)N[C@@H](CO)C(N)=O [Example 114]
EC50 [1]: 0.133 nM
EC50 [2]: 0.267 nM

CC[C@H](C)[C@H](NC(=O)[C@H](CC(C)C)NC(=O)[C@H](Cc1ccc(O)cc1)NC(=O)[C@H](CCC(=O)O)NC(=O)[C@@H](NC(=O)[C@H](Cc1ccccc1)NC(=O)[C@H](C)NC(=O)C(C)(C)NC(=O)[C@H](CCC(N)=O)NC(=O)[C@H](C)NC(=O)[C@H](CCCCNC(=O)COCCOCCNC(=O)COCCOCCNC(=O)CC[C@H](NC(=O)CCCCCCCCCCCCCCCCCCC(=O)O)C(=O)O)NC(=O)[C@H](CCCCN)NC(=O)[C@H](CC(=O)O)NC(=O)[C@H](CC(C)C)NC(=O)[C@H](CC(C)C)NC(=O)[C@@H](NC(=O)[C@H](CO)NC(=O)[C@](C)(Cc1ccccc1)NC(=O)[C@H](CC(=O)O)NC(=O)[C@H](CO)NC(=O)[C@@H](NC(=O)[C@](C)(Cc1ccccc1)NC(=O)[C@@H](NC(=O)CNC(=O)[C@H](CCC(=O)O)NC(=O)C(C)(C)NC(=O)[C@@H](N)Cc1ccc(O)cc1)[C@@H](C)O)[C@@H](C)O)[C@@H](C)CC)[C@@H](C)CC)C(=O)N[C@@H](CCC(=O)O)C(=O)NCC(=O)NCC(=O)N1CCC[C@H]1C(=O)N[C@@H](CO)C(=O)N[C@@H](CO)C(=O)NCC(=O)N[C@@H](C)C(=O)N1CCC[C@H]1C(=O)N1CCC[C@H]1C(=O)N1CCC[C@H]1C(=O)N[C@@H](CO)C(N)=O [Example 131] (H-Y[Aib]EGT[αMeF]TSD[αMeF]SILLDKK([AEEA-AEEA-γGlu-C20 diacid])AQ[Aib]AFIEYLIEGGPSSGAPPPS-NH2)
EC50 [1]: 0.183 nM
EC50 [2]: 0.156 nM

CC[C@H](C)[C@H](NC(=O)[C@H](CC(C)C)NC(=O)[C@H](Cc1ccc(O)cc1)NC(=O)[C@H](CCC(=O)O)NC(=O)[C@@H](NC(=O)[C@H](Cc1ccccc1)NC(=O)[C@H](C)NC(=O)C(C)(C)NC(=O)[C@H](CCC(N)=O)NC(=O)[C@H](C)NC(=O)[C@H](CCCCNC(=O)COCCOCCNC(=O)COCCOCCNC(=O)CC[C@H](NC(=O)CCCCCCCCCCCCCCCCCCC(=O)O)C(=O)O)NC(=O)[C@H](CCCCN)NC(=O)[C@H](CC(=O)O)NC(=O)[C@H](CC(C)C)NC(=O)[C@H](CC(C)C)NC(=O)[C@@H](NC(=O)[C@H](CO)NC(=O)[C@H](Cc1cccnc1)NC(=O)[C@H](CC(=O)O)NC(=O)[C@H](CO)NC(=O)[C@@H](NC(=O)[C@](C)(Cc1ccccc1)NC(=O)[C@@H](NC(=O)CNC(=O)[C@H](CCC(=O)O)NC(=O)C(C)(C)NC(=O)[C@@H](N)Cc1ccc(O)cc1)[C@@H](C)O)[C@@H](C)O)[C@@H](C)CC)[C@@H](C)CC)C(=O)N[C@@H](CCC(=O)O)C(=O)NCC(=O)NCC(=O)N1CCC[C@H]1C(=O)N[C@@H](CO)C(=O)N[C@@H](CO)C(=O)NCC(=O)N[C@@H](C)C(=O)N1CCC[C@H]1C(=O)N1CCC[C@H]1C(=O)N1CCC[C@H]1C(=O)N[C@@H](CO)C(N)=O [Example 132] (H-Y[Aib]EGT[αMeF]TSD[3Pal]SILLDKK([AEEA-AEEA-γGlu-C20 diacid])AQ[Aib]AFIEYLIEGGPSSGAPPPS-NH2)
EC50 [1]: 0.0657 nM
EC50 [2]: 0.26 nM

CC[C@H](C)[C@H](NC(=O)[C@H](CC(C)C)NC(=O)[C@H](Cc1ccc(O)cc1)NC(=O)[C@H](CCC(=O)O)NC(=O)[C@@H](NC(=O)[C@H](Cc1ccccc1)NC(=O)[C@H](C)NC(=O)C(C)(C)NC(=O)[C@H](CCC(N)=O)NC(=O)[C@H](C)NC(=O)[C@H](CCCCNC(=O)COCCOCCNC(=O)COCCOCCNC(=O)CC[C@H](NC(=O)CCCCCCCCCCCCCCCCCCC(=O)O)C(=O)O)NC(=O)[C@H](CCCCN)NC(=O)[C@H](CC(=O)O)NC(=O)[C@H](CC(C)C)NC(=O)[C@H](CC(C)C)NC(=O)[C@@H](NC(=O)[C@H](CO)NC(=O)[C@H](C)NC(=O)[C@H](CC(=O)O)NC(=O)[C@H](CO)NC(=O)[C@@H](NC(=O)[C@H](Cc1ccccc1)NC(=O)[C@@H](NC(=O)CNC(=O)[C@H](CCC(=O)O)NC(=O)C(C)(C)NC(=O)[C@@H](N)Cc1ccc(O)cc1)[C@@H](C)O)[C@@H](C)O)[C@@H](C)CC)[C@@H](C)CC)C(=O)N[C@@H](CCC(=O)O)C(=O)N[C@@H](C)C(=O)NCC(=O)N1CCC[C@H]1C(=O)N[C@@H](CO)C(=O)N[C@@H](CO)C(=O)NCC(=O)N[C@@H](C)C(=O)N1CCC[C@H]1C(=O)N1CCC[C@H]1C(=O)N1CCC[C@H]1C(=O)N[C@@H](CO)C(N)=O [Example 136] (H-Y[Aib]EGTFTSDASILLDKK([AEEA-AEEA-γGlu-C20 diacid])AQ[Aib]AFIEYLIEAGPSSGAPPPS-NH2)
EC50 [1]: 3.39 nM
EC50 [2]: 0.06 nM
